Laboratory results reported in US9487529B2, “Macrocyclic compounds as ALK, FAK and JAK2 inhibitors” (Cephalon, Inc., priority 2011, dated 2016).
Where a name gives a salt, the structure may show the parent alone. Read-outs that look alike come from different tables or passages of the source.

How the values were obtained:
Format in all cases: biochemical
recombinant human FAK = molecular target: T1, recombinant human FAK (Homo sapiens, UniProt Q05397); experiment: FAK Enzyme Assay (TRF detection); details: 10 μM ATP; average of two or more determinations; class symbols
T1 construct: purchased Invitrogen PV3832; host or cells: baculovirus expression system
Method: Example compounds were tested for their ability to inhibit the kinase activity of baculovirus-expressed recombinant human FAK using the TRF detection system as described above for JAK2. IC50 runs were performed in 96-well Costar high binding plates (#3922). The plates were coated first with 100 μL/well of 10 μg/mL neutravidin in TBS at 37° C. for 2 h, followed by 100 μL/well of 1 μg/mL 15-mer peptide substrate (biotinyl-amino-hexanoyl-EQEDEPEGDYFEWLE-amide) at 37° C. for another hour. The FAK assay mixture (total volume=100 μL/well) consisting of 20 mM HEPES, pH 7.2, 10 μM ATP, 5 mM MgCl2, 0.5 mM DTT, 0.1% BSA, and test compound (diluted in DMSO; 2.5% DMSO final in assay) was then added to the assay plate. Enzyme (10 ng/mL FAK, Invitrogen #PV3832) was added and the reaction was allowed to proceed at room temperature for 30 minutes. Detection of the phosphorylated product was performed by adding 100 μL/well of Eu—N1 labeled PY100 antibody (diluted 1:75000 in antibody dilution buffer). Samples were incubated at room temperature for 1 hour, followed by addition of 100 μL enhancement solution. Plates were agitated for 10 minutes and fluorescence of the resulting solution measured using the PerkinElmer EnVision™ 2102 (or 2104) multi-label plate reader.
(§1) Data analysis was performed using ActivityBase (IDBS, Guilford, UK). IC50 values were calculated by plotting percent inhibition versus log10 of the concentration of compound and fitting to the nonlinear regression sigmoidal dose-response (variable slope) equation in XLFit (IDBS, Guilford, UK).

[1] = molecular target: T2, baculovirus-expressed JAK2 (Homo sapiens, UniProt O60674); experiment: JAK2 Kinase Assay (TRF detection); details: 0.2 μM ATP; average of two or more determinations; class symbols
T2 construct: host or cells: baculovirus expression system
Method: Compounds were tested for their ability to inhibit the kinase activity of baculovirus-expressed JAK2 using the TRF detection system. IC50 runs were conducted in 96-well Costar high binding plates (Corning Costar #3922, Corning, N.Y.). The plates were coated first with 100 μL/well of 10 μg/mL Neutravidin (Pierce #31000, Rockford, Ill.) in TBS at 37° C. for 2 hours, followed by 100 μL/well of 1 μg/mL 15-mer peptide substrate (biotinyl-amino-hexanoyl-EQEDEPEGDYFEWLE-amide, Infinity Biotech Research and Resource, Aston, Pa.) at 37° C. for another hour. The JAK2 assay mixture (total volume=100 μL/well) consisting of 20 mM HEPES, pH 7.2, 0.2 μM ATP, 1 mM MnCl2, 0.1% BSA, and test compound (diluted in DMSO; 2.5% DMSO final in assay) was then added to the assay plate. Enzyme (15 ng/ml JAK2) was added and the reaction was allowed to proceed at room temperature for 20 minutes. Detection of the phosphorylated product was performed by adding 100 μL/well of Eu—N1 labeled PY100 antibody (PerkinElmer Life Sciences #AD0041, Boston, Mass.). Incubation at the room temperature then proceeded for 1 hour, followed by addition of 100 μl enhancement solution (PerkinElmer Life Sciences #1244-105, Boston, Mass.). The plate was gently agitated and after thirty minutes, the fluorescence of the resulting solution was measured using the PerkinElmer EnVision™ 2102 (or 2104) multi-label plate reader.
as §1

[2] = molecular target: T3, human insulin receptor cytoplasmic domain (βIRCD) (Homo sapiens, UniProt P06213); experiment: Insulin Receptor Kinase Assay (TRF); details: 20 μM ATP, read-out: IR IC50
T3 construct: human insulin receptor cytoplasmic domain (βIRCD); host or cells: baculovirus expression system
Method: Example compounds were tested for their ability to inhibit the kinase activity of baculovirus-expressed human insulin receptor cytoplasmic domain (βIRCD) using the TRF assay as described above for ALK. Phosphorylation of the substrate, recombinant GST-PLC-γ, was detected with a europium-labeled anti-phosphotyrosine antibody and measured by TRF. Each 96-well plate (Greiner#655074) was coated with 100 μL/well of 20 μg/mL substrate solution in TBS. The IR assay mixture (total volume=100 μL/well) consisting of 20 mM HEPES (pH 7.2), 20 μM ATP, 5 mM MnCl2, 0.1% BSA, and test compound (diluted in DMSO; 2.5% DMSO final in assay) was added to the assay plates. Enzyme (20 ng/mL βIRCD) was added and the reaction was allowed to proceed at room temperature for 20 minutes. Detection of the phosphorylated product was performed by adding 100 μL/well of Eu—N1 labeled PY100 antibody (PerkinElmer#AD0160; diluted 1:10,000 in TBS-T containing 0.25% BSA). Incubation at 37° C. for 1 hour was followed by addition of 50 μL enhancement solution (Wallace#1244-105). Plates were agitated for 10 minutes and the fluorescence was measured using the PerkinElmer EnVision™ 2102 or 2104 multi-label plate reader.
as §1

[3] = average of two or more determinations, class symbols

T3 sequence (P06213 980-1382 limits assumed): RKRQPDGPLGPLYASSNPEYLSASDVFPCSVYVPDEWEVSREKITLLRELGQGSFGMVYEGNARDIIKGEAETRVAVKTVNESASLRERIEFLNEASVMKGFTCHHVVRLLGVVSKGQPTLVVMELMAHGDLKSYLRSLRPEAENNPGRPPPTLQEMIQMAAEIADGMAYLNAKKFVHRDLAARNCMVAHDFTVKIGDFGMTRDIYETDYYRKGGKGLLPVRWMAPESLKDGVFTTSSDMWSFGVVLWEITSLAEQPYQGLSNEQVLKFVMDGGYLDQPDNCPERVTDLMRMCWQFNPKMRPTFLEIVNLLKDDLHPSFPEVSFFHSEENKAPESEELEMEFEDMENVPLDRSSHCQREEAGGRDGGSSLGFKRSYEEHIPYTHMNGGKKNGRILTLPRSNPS
T1 sequence (Q05397 whole entry): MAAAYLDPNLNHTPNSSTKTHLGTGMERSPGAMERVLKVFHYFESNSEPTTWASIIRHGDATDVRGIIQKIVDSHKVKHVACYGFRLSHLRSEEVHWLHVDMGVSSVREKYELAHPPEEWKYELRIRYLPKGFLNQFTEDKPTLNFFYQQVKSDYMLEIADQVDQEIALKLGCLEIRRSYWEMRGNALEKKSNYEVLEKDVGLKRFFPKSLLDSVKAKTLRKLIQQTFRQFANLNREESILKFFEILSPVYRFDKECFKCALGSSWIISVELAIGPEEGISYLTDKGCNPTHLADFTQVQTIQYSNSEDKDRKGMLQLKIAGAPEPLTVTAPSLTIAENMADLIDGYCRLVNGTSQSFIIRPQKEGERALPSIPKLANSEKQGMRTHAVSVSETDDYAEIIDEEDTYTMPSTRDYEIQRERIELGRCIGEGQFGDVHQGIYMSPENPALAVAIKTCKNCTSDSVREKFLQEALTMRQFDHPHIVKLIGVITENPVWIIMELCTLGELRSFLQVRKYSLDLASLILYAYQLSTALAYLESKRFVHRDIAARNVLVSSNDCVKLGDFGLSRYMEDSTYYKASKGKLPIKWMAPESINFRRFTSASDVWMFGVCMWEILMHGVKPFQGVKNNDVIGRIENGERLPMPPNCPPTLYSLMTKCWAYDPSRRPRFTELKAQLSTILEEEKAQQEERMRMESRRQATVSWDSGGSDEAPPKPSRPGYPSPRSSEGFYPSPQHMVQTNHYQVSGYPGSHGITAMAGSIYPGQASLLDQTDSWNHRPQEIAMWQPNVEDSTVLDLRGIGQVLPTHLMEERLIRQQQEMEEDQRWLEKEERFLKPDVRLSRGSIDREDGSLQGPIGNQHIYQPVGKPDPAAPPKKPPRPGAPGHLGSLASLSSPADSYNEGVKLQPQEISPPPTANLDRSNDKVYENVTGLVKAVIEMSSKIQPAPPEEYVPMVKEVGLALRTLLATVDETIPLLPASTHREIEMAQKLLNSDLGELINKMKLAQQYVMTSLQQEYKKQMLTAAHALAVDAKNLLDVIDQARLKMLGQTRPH
T2 sequence (O60674 whole entry): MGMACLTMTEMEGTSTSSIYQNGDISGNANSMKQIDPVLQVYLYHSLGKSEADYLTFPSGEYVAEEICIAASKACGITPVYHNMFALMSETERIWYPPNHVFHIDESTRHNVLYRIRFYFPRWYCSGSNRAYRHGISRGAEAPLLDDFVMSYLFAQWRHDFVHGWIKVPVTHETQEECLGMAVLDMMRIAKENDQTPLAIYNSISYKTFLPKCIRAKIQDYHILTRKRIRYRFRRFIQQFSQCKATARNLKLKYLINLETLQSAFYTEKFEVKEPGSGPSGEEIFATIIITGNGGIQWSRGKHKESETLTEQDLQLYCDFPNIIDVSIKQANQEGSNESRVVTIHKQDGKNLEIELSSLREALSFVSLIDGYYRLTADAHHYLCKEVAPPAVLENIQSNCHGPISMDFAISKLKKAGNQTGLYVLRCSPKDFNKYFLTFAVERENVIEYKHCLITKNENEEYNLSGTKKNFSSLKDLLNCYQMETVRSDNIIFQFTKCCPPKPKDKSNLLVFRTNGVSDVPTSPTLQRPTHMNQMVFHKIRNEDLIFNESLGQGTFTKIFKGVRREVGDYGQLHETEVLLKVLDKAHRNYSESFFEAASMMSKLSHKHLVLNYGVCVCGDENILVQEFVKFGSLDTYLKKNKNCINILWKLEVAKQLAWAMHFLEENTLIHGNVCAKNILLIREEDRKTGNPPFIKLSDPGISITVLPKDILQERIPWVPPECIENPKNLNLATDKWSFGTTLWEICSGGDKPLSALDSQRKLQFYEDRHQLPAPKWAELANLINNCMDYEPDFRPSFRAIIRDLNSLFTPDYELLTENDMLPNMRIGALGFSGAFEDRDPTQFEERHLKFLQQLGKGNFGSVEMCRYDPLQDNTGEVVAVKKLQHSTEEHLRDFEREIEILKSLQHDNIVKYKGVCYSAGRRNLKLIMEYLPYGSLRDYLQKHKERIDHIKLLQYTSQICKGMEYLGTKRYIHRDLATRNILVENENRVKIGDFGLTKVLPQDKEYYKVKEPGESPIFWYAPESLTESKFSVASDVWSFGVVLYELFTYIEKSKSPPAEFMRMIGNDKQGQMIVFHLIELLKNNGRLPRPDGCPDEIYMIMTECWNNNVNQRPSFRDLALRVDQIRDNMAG

Compound	IC50 (recombinant human FAK)	IC50 [1]	IC50 [2, 3]	IC50 ([2]; given as numeric bound)
CN1CCN(c2ccc3cc2/C=C\c2cccc(c2)Nc2nc(ncc2Cl)N3)CC1 [Example 2, (14Z)-6-Chloro-17-(4-methylpiperazin-1-yl)-2,4,8,22-tetraazatetracyclo[14.3.1.1^3,7.1^9,13]docosa-1(20),3(22),4,6,9(21),10,12,14,16,18-decaene]	101 to 1000 nM	< 10 nM	1000 to 10000 nM	
CN1CCN(c2ccc3cc2CCc2cccc(c2)Nc2nc(ncc2Cl)N3)CC1 [Example 3, 6-Chloro-17-(4-methylpiperazin-1-yl)-2,4,8,22-tetraazatetracyclo[14.3.1.1^3,7.1^9,13]docosa-1(20),3(22),4,6,9(21),10,12,16,18-nonaene Trifluoroacetate (1:1)]	101 to 1000 nM	< 10 nM	101 to 1000 nM	
COc1cc(N2CCN(C)CC2)c2cc1Nc1ncc(Cl)c(n1)Nc1cc(ccc1N(C)S(C)(=O)=O)CC2 [Example 5, 6-Chloro-10-(2-methanesulfonyl-methyl-amino)-17-(4-methylpiperazin-1-yl)-19-methoxy-2,4,8,22-tetraazatetracyclo[14.3.1.1^3,7.1^9,13]docosa-1(20),3(22),4,6,9(21),10,12,16,18-nonaene Trifluoroacetate (1:1)]	< 10 nM	10 to 100 nM	10 to 100 nM	
COc1cc(N2CCN(C)CC2)c2cc1Nc1ncc(Cl)c(n1)Nc1cc(ccc1S(=O)(=O)C(C)C)CC2 [Example 6, 6-Chloro-10-(propane-2-sulfonyl)-17-(4-methylpiperazin-1-yl)-19-methoxy-2,4,8,22-tetraazatetracyclo[14.3.1.1^3,7.1^9,13]docosa-1(20),3(22),4,6,9(21),10,12,16,18-nonaene Trifluoroacetate (1:1)]	< 10 nM	101 to 1000 nM	10 to 100 nM	
CN1CCN(c2ccc3cc2CCc2ccc(N(C)S(C)(=O)=O)c(c2)Nc2nc(ncc2Cl)N3)CC1 [Example 10, 6-Chloro-10-(2-methanesulfonyl-methyl-amino)-17-(4-methylpiperazin-1-yl)-2,4,8,22-tetraazatetracyclo[14.3.1.1^3,7.1^9,13]docosa-1(20),3(22),4,6,9(21),10,12,16,18-nonaene Trifluoroacetate (1:1)]	< 10 nM	< 10 nM	101 to 1000 nM	
COc1ccc2cc1Nc1nc(ncc1Cl)Nc1ccc(N3CCN(C)CC3)c(c1)/C=C\2 [Example 13, (14Z)-6-Chloro-10-methoxy-17-(4-methylpiperazin-1-yl)-2,4,8,22-tetraazatetracyclo[14.3.1.1^3,7.1^9,13]docosa-1(20),3(22),4,6,9(21),10,12,14,16,18-decaene]	101 to 1000 nM	10 to 100 nM		> 3000 nM
COc1ccc2cc1Nc1nc(ncc1Cl)Nc1ccc(N3CCN(C)CC3)c(c1)CC2 [Example 14, 6-Chloro-10-methoxy-17-(4-methylpiperazin-1-yl)-2,4,8,22-tetraazatetracyclo[14.3.1.1^3,7.1^9,13]docosa-1(20),3(22),4,6,9(21),10,12,16,18-nonaene Trifluoroacetate (1:1)]	10 to 100 nM	< 10 nM	101 to 1000 nM	
COc1cc(N2CCN(C)CC2)c2cc1Nc1ncc(Cl)c(n1)Nc1cccc(c1)CC2 [Example 15, 6-Chloro-17-(4-methylpiperazin-1-yl)-19-methoxy-2,4,8,22-tetraazatetracyclo[14.3.1.1^3,7.1^9,13]docosa-1(20),3(22),4,6,9(21),10,12,16,18-nonaene Trifluoroacetate (1:1)]	101 to 1000 nM	10 to 100 nM	101 to 1000 nM	
CN1CCN(c2ccc3cc2[C@H](O)[C@H](O)c2cccc(c2)Nc2nc(ncc2Cl)N3)CC1 [Example 27, (14R,15S)-6-chloro-17-(4-methylpiperazin-1-yl)-2,4,8,22-tetraazatetracyclo[14.3.1.1^3,7.1^9,13]docosa-1(20),3(22),4,6,9(21),10,12,16,18-nonaene-14,15-diol]	1000 to 10000 nM	10 to 100 nM		
